According to patent US20240251792A1, “WEED CONTROL METHOD” (SYNGENTA CROP PROTECTION AG, priority 2021, published 2024):
Where two headings read alike, the source gives them in different places.

How the values were obtained:
Assay type in all cases: in vivo
[1] = tested on: LOLPE; test: Biological efficacy, post-emergence glasshouse test (Table 2); settings: 1000 g/ha, after 12 days
Procedure: (§1) Seeds of a variety of test species were shown in unsterilised compost in small pots. After cultivation for one day (pre-emergence) or seven days (post-emergence) in controlled conditions in the glasshouse (at 24/16° C., day/night; 14 hours light; 65% humidity) the plants were sprayed with 1 mg of the active ingredient, formulated in 466 μl of a acetone/water/Tween 20 (49.75:49.75:0.5) solution, which is equivalent to 1000 g/ha. Once the foliage was dry, the pots were kept in the glasshouse (at 24/16° C., day/night; 14 hours light; 65% humidity), and were watered twice daily. After 12 days the test was evaluated and scored (100=total damage to plant, 0=no damage to plant).

[2] = tested on: STEME; test: as above; settings: 1000 g/ha, after 12 days
Procedure: as §1

[3] = tested on: AMARE; test: as above; settings: 1000 g/ha, after 12 days
Procedure: as §1

[4] = tested on: DIGSA; test: as above; settings: 1000 g/ha, after 12 days
Procedure: as §1

[5] = tested on: LOLPE; test: Biological efficacy, pre-emergence glasshouse test (Table 2); settings: 1000 g/ha, after 12 days
Procedure: as §1

[6] = tested on: STEME; test: as above; settings: 1000 g/ha, after 12 days
Procedure: as §1

[7] = tested on: AMARE; test: as above; settings: 1000 g/ha, after 12 days
Procedure: as §1

[8] = tested on: DIGSA; test: as above; settings: 1000 g/ha, after 12 days
Procedure: as §1

[9] = tested on: weeds and/or crops; test: Post-emergence biological efficacy (Table 4); settings: 312 h, 1000 g/ha, evaluated after 13 days
How it was run: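 Scores are visual damage (0 = none, 100 = total), read 13 days after treatment at 24/18 °C with 15 h light. Plants had been sown in standard soil and grown 14 days before a spray of compound in F50/acetone, diluted with 0.2% Genapol X080.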

[10] = tested on: ZEAMX; test: Pre-emergence biological efficacy (Table 3); settings: 312 h, 1000 g/ha, after 13 days, read-out: evaluation (100=total damage to plant; 0=no damage to plant)
How it was run: (§2)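 Pre-emergence spray applied one day post-sowing; aqueous solution from 50 g/l AMA-based formulation in 0.2% Genapol X080. Evaluation at 13 days, 0 = no damage, 100 = total damage.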

[11] = tested on: STEME; test: Pre-emergence biological efficacy (Table 3); settings: 312 h, after 13 days, read-out: evaluation (100=total damage to plant; 0=no damage to plant)
How it was run: as §2

[12] = tested on: IPOHE; test: Pre-emergence biological efficacy (Table 3); settings: Ipomoea hederacea, 312 h, 1000 g/ha, after 13 days, read-out: evaluation (100=total damage to plant; 0=no damage to plant)
How it was run: as §2

[13] = tested on: AMARE; test: Pre-emergence biological efficacy (Table 3); settings: Amaranthus retroflexus, 312 h, 1000 g/ha, after 13 days, read-out: evaluation (100=total damage to plant; 0=no damage to plant)
How it was run: as §2

[14] = tested on: ABUTH; test: Pre-emergence biological efficacy (Table 3); settings: Abutilon theophrasti, 312 h, after 13 days, read-out: evaluation (100=total damage to plant; 0=no damage to plant)
How it was run: as §2

[15] = tested on: ECHCG; test: Pre-emergence biological efficacy (Table 3); settings: Echinochloa crus-galli, 312 h, 1000 g/ha, after 13 days, read-out: evaluation (100=total damage to plant; 0=no damage to plant)
How it was run: as §2

Row | SMILES | score (100=total damage to plant, 0=no damage to plant) [1] | score (100=total damage to plant, 0=no damage to plant) [2] | score (100=total damage to plant, 0=no damage to plant) [3] | score (100=total damage to plant, 0=no damage to plant) [4] | score (100=total damage to plant, 0=no damage to plant) [5] | score (100=total damage to plant, 0=no damage to plant) [6] | score (100=total damage to plant, 0=no damage to plant) [7] | score (100=total damage to plant, 0=no damage to plant) [8] | pest or weed control at 1000 g/ha ([9]; STEME, read-out: damage to plant STEME (100=total damage; 0=no damage)) | pest or weed control at 1000 g/ha ([9]; ZEAMX, read-out: damage to plant ZEAMX (100=total damage; 0=no damage)) | pest or weed control at 1000 g/ha ([9]; Abutilon theophrasti, ABUTH, read-out: damage to plant ABUTH (100=total damage; 0=no damage)) | pest or weed control at 1000 g/ha ([9]; Amaranthus retroflexus, AMARE, read-out: damage to plant AMARE (100=total damage; 0=no damage)) | pest or weed control at 1000 g/ha ([9]; Echinochloa crus-galli, ECHCG, read-out: damage to plant ECHCG (100=total damage; 0=no damage)) | pest or weed control at 1000 g/ha ([9]; Ipomoea hederacea, IPOHE, read-out: damage to plant IPOHE (100=total damage; 0=no damage)) | plant injury at 1000 g/ha [10] | pest or weed control at 1000 g/ha [11] | pest or weed control at 1000 g/ha [12] | pest or weed control at 1000 g/ha [13] | pest or weed control at 1000 g/ha [14] | pest or weed control at 1000 g/ha [15]
1 | CC(C)(C)c1ccc(C(F)(F)C(=O)O)cc1 [Compound 1-1] | 0 | 0 | 40 | 0 | 0 | 20 | 0 | 0 |  |  |  |  |  |  |  |  |  |  |  | 
2 | COc1ccc(C(F)(F)C(=O)O)cc1 [Compound 1-2] | 0 | 50 | 40 | 0 | 0 | 0 | 0 | 0 |  |  |  |  |  |  |  |  |  |  |  | 
3 | O=C(O)C(F)(F)c1ccc(OC(F)(F)F)cc1 [Compound 1-3] | 0 | 30 | 70 | 0 | 30 | 30 | 50 | 0 |  |  |  |  |  |  |  |  |  |  |  | 
4 | COc1cccc(C(F)(F)C(=O)O)c1 [Compound 1-6] | 0 | 20 | 80 | 0 | 0 | 0 |  | 0 |  |  |  |  |  |  |  |  |  |  |  | 
5 | COc1cc(C(F)(F)C(=O)O)ccc1C [Compound 1-7] | 0 | 70 | 40 | 0 | 0 | 30 | 0 | 0 |  |  |  |  |  |  |  |  |  |  |  | 
6 | Nc1cccc(C(F)(F)C(=O)O)c1 [Compound 1-8, 2-(3-Aminophenyl)-2,2-difluoro-acetic acid] | 0 | 10 | 10 | 0 | 0 | 0 | 0 | 0 |  |  |  |  |  |  |  |  |  |  |  | 
7 | O=C(O)C(F)(F)c1ccc(OC(F)(F)F)c(Br)c1 [Compound 1-20] | 0 | 0 | 70 | 30 | 0 | 0 | 30 | 0 |  |  |  |  |  |  |  |  |  |  |  | 
8 | O=C(O)C(F)(F)c1ccc(OC(F)F)cc1F [Compound 1-32] | 0 | 40 | 30 | 0 | 0 | 0 | 0 | 0 |  |  |  |  |  |  |  |  |  |  |  | 
9 | N#Cc1cccc(C(F)(F)C(=O)O)c1 [Compound 1-186] | 0 | 30 | 60 | 0 | 0 | 10 | 10 | 0 |  |  |  |  |  |  |  |  |  |  |  | 
10 | CCc1ccccc1C(F)(F)C(=O)O [Compound 1-263] | 0 | 50 | 50 | 0 | 0 | 0 | 40 | 0 |  |  |  |  |  |  |  |  |  |  |  | 
11 | CCc1c(Cl)cccc1C(F)(F)C(=O)O [Compound 1-275, 2-(3-Chloro-2-ethyl-phenyl)-2,2-difluoro-acetic acid] | 0 | 80 | 90 | 30 | 60 | 100 | 100 | 80 |  |  |  |  |  |  |  |  |  |  |  | 
12 | C#Cc1c(Cl)cccc1C(F)(F)C(=O)O [Compound 1-291, 2-(3-Chloro-2-ethynyl-phenyl)-2,2-difluoro-acetic acid] | 0 | 80 | 100 | 70 | 80 | 100 | 90 | 90 |  |  |  |  |  |  |  |  |  |  |  | 
13 | COc1ccc(F)cc1C(F)(F)C(=O)O [Compound 1-304] | 20 | 20 | 70 | 20 | 0 | 0 | 0 | 0 |  |  |  |  |  |  |  |  |  |  |  | 
14 | CCOC(=O)C(F)(F)c1cccc2ccccc12 [Compound 3-397, Ethyl 2,2-difluoro-2-(1-naphthyl)acetate] | 0 | 70 | 40 | 0 | 0 |  | 0 | 0 | 100% | 0% | 90% | 10% | 0% | 60% | 20% | 40% | 0% | 10% | 50% | 0%
15 | N#Cc1ccccc1C(F)(F)C(=O)[O-].[Li+] [Compound 5-255] | 0 | 70 | 70 | 0 | 0 |  | 20 | 0 |  |  |  |  |  |  |  |  |  |  |  | 
